From patent US4775684A, “1,3-dioxane ethers” (Imperial Chemical Industries PLC, priority 1985, dated 1988)

Tests used:
[1] = biological target: T1, U46619 stimulated platelet aggregation (Homo sapiens, UniProt P21731); assay: blood platelet aggregation test (procedure (b)), U46619 stimulated aggregation of human citrated platelet-rich plasma; assay type: cell-based; conditions: U46619, averaged over several concentrations
T1 construct: human, citrated platelet-rich plasma; endogenous in cells; host or cells: human platelets in citrated platelet-rich plasma
T1 sequence (P21731 1-343): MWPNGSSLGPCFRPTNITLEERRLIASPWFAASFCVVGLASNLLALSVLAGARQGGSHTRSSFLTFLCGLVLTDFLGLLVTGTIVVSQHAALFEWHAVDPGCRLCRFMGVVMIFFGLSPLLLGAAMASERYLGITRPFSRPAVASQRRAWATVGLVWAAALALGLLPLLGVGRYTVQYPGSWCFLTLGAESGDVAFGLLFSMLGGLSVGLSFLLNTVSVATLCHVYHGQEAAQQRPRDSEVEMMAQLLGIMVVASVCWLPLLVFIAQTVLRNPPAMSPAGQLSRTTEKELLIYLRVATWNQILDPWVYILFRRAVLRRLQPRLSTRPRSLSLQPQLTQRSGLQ
From the text: (b) a blood platelet aggregation test based on that described by Born (Nature, 1962, 194, 927-929) and involving:
(i) aggregating human, citrated platelet-rich plasma by addition of the TXA2 mimetic agent U46619 so that a dose-response curve is generated;
(ii) generating a dose-response curve for U46619 stimulated platelet aggregation in the presence of increasing amounts of test compound (generally in the range, 10^-5 M to 10^-10 M); and
(iii) calculating a KB value indicating potency of TXA2 antagonism for the test compound, averaged over several concentrations, from the calculated 50% response value for U46619 aggregation in the presence and absence of test compound; and […]

rat aortal strip = biological target: T2, rat aortal strip (Rattus norvegicus, UniProt P34978); assay: rat aortal strip model (procedure (a)), agonist U46619; assay type: cell-based; conditions: read-out: pA2 (converted)
T2 construct: rat aortal strip model; from tissue; host or cells: rat aorta strip
T2 sequence (P34978 1-341): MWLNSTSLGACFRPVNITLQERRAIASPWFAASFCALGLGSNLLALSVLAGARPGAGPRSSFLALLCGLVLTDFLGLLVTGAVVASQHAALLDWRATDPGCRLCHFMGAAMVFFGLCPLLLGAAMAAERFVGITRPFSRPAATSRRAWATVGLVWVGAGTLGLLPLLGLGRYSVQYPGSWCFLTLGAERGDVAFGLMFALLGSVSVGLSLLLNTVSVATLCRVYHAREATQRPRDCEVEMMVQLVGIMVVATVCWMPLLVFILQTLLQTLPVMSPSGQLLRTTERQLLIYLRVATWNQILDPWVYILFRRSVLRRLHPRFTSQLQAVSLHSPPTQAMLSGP
From the text: As stated earlier, the compounds of formula I are antagonists of one or more of the actions of TXA2, for example certain of its actions on blood platelets, the vasculature and/or the lung.
(a) The rabbit aortal strip model devised by Piper and Vane (Nature, 1969, 223, 29-35) or the rat aortal strip model developed by Kennedy et alia (Prostaglandins, 1982, 24, 667-689), using as agonist the TXA2 mimtic agent known as U46619 (described by R. L. Jones et alia, in "Chemistry, Biochemistry and Pharmacological Activity of Prostanoids" edited by S. M. Roberts and F. Scheinmann, at page 211, Pergamon Press, 1979);

- Kb [1]: 17.5 nM
- Kb (rat aortal strip): 0.195 nM
SMILES: CC(C)(Oc1ccccc1)[C@@H]1OC[C@H](C/C=C\CCC(=O)O)[C@H](c2ccccc2O)O1 (relative stereo) [Example 6, 4(Z)-6-([2,4,5-cis]-2-[1-methyl-1-phenoxyethyl]-4-o-hydroxyphenyl-1,3-dioxan-5-yl)hexenoic acid]
